Data as given in the supplement of paper PMC11451515.

Columns and labels:
Details in all cases: 48 h
NOMO1 [1] = assay: AUC of viability dose-response curve (% viability x log10 dose units); higher = less sensitive
Method in brief: (§1)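 Area under the curve was integrated by trapezoidal rule from a log-logistic fit of normalised viability, with curves exceeding full viability scaled and quality-control failures removed. The fit had four parameters over log10 doses. Viability came from CellTiter-Glo One luminescence, normalised per plate to DMSO and cell-free wells, after leukemia cells adapted to each medium (500 or 1000 cells/well, 1536-well plates) were exposed to library compounds in DMSO for 48 h at 37°C. The 11 threefold doses ran from 47 μM to 0.79 nM.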

P12-Ichikawa [2] = assay: as above
Method in brief: as §1

SEM cells [3] = assay: as above
Method in brief: as §1

NOMO1 [4] = assay: cell viability relative to DMSO control; higher = less cytotoxic
Method in brief: (§2)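 NOMO1 or SEM (500 cells/well) or P12-Ichikawa (1000 cells/well) leukemia cells were adapted for at least four passages in each medium. They were seeded in 1536-well plates (5 μl) and pin-dosed with library compounds in DMSO over an 11-point threefold series, 47 μM to 0.79 nM. CellTiter-Glo One luminescence was read after 48 h at 37°C. Viability is the per-plate percentage relative to DMSO wells, with cell-free wells as background.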

P12-Ichikawa [5] = assay: as above
Method in brief: as §2

SEM cells [6] = assay: as above
Method in brief: as §2

O=[S+]([O-])(/N=C/c1c(O)ccc2ccccc12)c1cccs1
AUC of viability dose-response curve
Details | NOMO1 [1] | P12-Ichikawa [2] | SEM cells [3]
HPLM + 10% dialyzed FBS | 443 | 464 | 442
RPMI 5 mM glucose + 10% FBS | 472 | 465 | 428
RPMI 5 mM glucose + 10% dialyzed FBS | 455 | 468 | 440

cell viability [%]
Details | NOMO1 [4] | P12-Ichikawa [5] | SEM cells [6]
HPLM + 10% dialyzed FBS, 0.000781 µM | – | 109 | 97
HPLM + 10% dialyzed FBS, 0.00234 µM | – | 113 | 114
HPLM + 10% dialyzed FBS, 0.00702 µM | – | 116 | 101
HPLM + 10% dialyzed FBS, 0.0211 µM | – | 120 | 109
HPLM + 10% dialyzed FBS, 0.0632 µM | – | 120 | 110
HPLM + 10% dialyzed FBS, 0.19 µM | – | 120 | 110
HPLM + 10% dialyzed FBS, 0.569 µM | – | 117 | 112
HPLM + 10% dialyzed FBS, 1.71 µM | – | 122 | 66.8
HPLM + 10% dialyzed FBS, 5.12 µM | – | 124 | 104
HPLM + 10% dialyzed FBS, 15.4 µM | – | 103 | 88.3
HPLM + 10% dialyzed FBS, 46.1 µM | – | 84.6 | 81.9
RPMI 5 mM glucose + 10% FBS, 0.000781 µM | 113 | 119 | 113
RPMI 5 mM glucose + 10% FBS, 0.00234 µM | 126 | 123 | 116
RPMI 5 mM glucose + 10% FBS, 0.00702 µM | 111 | 130 | 108
RPMI 5 mM glucose + 10% FBS, 0.0211 µM | 124 | 115 | 106
RPMI 5 mM glucose + 10% FBS, 0.0632 µM | 129 | 120 | 113
RPMI 5 mM glucose + 10% FBS, 0.19 µM | 129 | 120 | 120
RPMI 5 mM glucose + 10% FBS, 0.569 µM | 114 | 133 | 102
RPMI 5 mM glucose + 10% FBS, 1.71 µM | 113 | 123 | 74.3
RPMI 5 mM glucose + 10% FBS, 5.12 µM | 126 | 132 | 93.3
RPMI 5 mM glucose + 10% FBS, 15.4 µM | 107 | 123 | 94.5
RPMI 5 mM glucose + 10% FBS, 46.1 µM | 126 | 125 | 68.5
RPMI 5 mM glucose + 10% dialyzed FBS, 0.000781 µM | – | 117 | 98.7
RPMI 5 mM glucose + 10% dialyzed FBS, 0.00234 µM | – | 121 | 136
RPMI 5 mM glucose + 10% dialyzed FBS, 0.00702 µM | – | 126 | 109
RPMI 5 mM glucose + 10% dialyzed FBS, 0.0211 µM | – | 125 | 112
RPMI 5 mM glucose + 10% dialyzed FBS, 0.0632 µM | – | 124 | 131
RPMI 5 mM glucose + 10% dialyzed FBS, 0.19 µM | – | 124 | 118
RPMI 5 mM glucose + 10% dialyzed FBS, 0.569 µM | – | 120 | 115
RPMI 5 mM glucose + 10% dialyzed FBS, 1.71 µM | – | 122 | 79.5
RPMI 5 mM glucose + 10% dialyzed FBS, 5.12 µM | – | 121 | 98.2
RPMI 5 mM glucose + 10% dialyzed FBS, 15.4 µM | – | 109 | 91.1
RPMI 5 mM glucose + 10% dialyzed FBS, 46.1 µM | – | 103 | 98.7

CNNCc1ccc(C(=O)NC(C)C)cc1
AUC of viability dose-response curve
Details | NOMO1 [1] | P12-Ichikawa [2] | SEM cells [3]
HPLM + 10% dialyzed FBS | 465 | 467 | 434
RPMI 5 mM glucose + 10% FBS | 468 | 464 | 452
RPMI 5 mM glucose + 10% dialyzed FBS | 468 | 466 | 448

cell viability [%], HPLM + 10% dialyzed FBS
Details | P12-Ichikawa [5] | SEM cells [6]
0.000781 µM | 118 | 102
0.00234 µM | 123 | 118
0.00702 µM | 125 | 130
0.0211 µM | 136 | 117
0.0632 µM | 124 | 139
0.19 µM | 137 | 133
0.569 µM | 135 | 107
1.71 µM | 144 | 132
5.12 µM | 133 | 83.7
15.4 µM | 119 | 92.1
46.1 µM | 99.7 | 40.7

NCCS(=O)(=O)O
AUC of viability dose-response curve
Details | NOMO1 [1] | P12-Ichikawa [2] | SEM cells [3]
HPLM + 10% dialyzed FBS | 441 | 469 | 463
RPMI 5 mM glucose + 10% FBS | 455 | 458 | 471
RPMI 5 mM glucose + 10% dialyzed FBS | 449 | 463 | 468

Cc1cc(-c2ncc(CC(=O)Nc3ccc(-c4cnccn4)cn3)cc2C)ccn1
AUC of viability dose-response curve
Details | NOMO1 [1] | P12-Ichikawa [2] | SEM cells [3]
HPLM + 10% dialyzed FBS | 445 | 458 | 462
RPMI 5 mM glucose + 10% FBS | 466 | 439 | 458
RPMI 5 mM glucose + 10% dialyzed FBS | 447 | 456 | 457

Cc1cc(-c2nnc3n2CCCCC3)c(C)n1-c1ccccc1
AUC of viability dose-response curve
Details | NOMO1 [1] | P12-Ichikawa [2] | SEM cells [3]
HPLM + 10% dialyzed FBS | 464 | 464 | 470
RPMI 5 mM glucose + 10% FBS | 473 | 462 | 424
RPMI 5 mM glucose + 10% dialyzed FBS | 470 | 470 | 472

cell viability [%]
Details | NOMO1 [4] | P12-Ichikawa [5] | SEM cells [6]
HPLM + 10% dialyzed FBS, 0.000781 µM | 116 | 120 | 110
HPLM + 10% dialyzed FBS, 0.00234 µM | 122 | 117 | 116
HPLM + 10% dialyzed FBS, 0.00702 µM | 136 | 122 | 115
HPLM + 10% dialyzed FBS, 0.0211 µM | 131 | 119 | 123
HPLM + 10% dialyzed FBS, 0.0632 µM | 121 | 118 | 117
HPLM + 10% dialyzed FBS, 0.19 µM | 125 | 116 | 118
HPLM + 10% dialyzed FBS, 0.569 µM | 148 | 118 | 120
HPLM + 10% dialyzed FBS, 1.71 µM | 132 | 117 | 119
HPLM + 10% dialyzed FBS, 5.12 µM | 117 | 115 | 98.7
HPLM + 10% dialyzed FBS, 15.4 µM | 120 | 117 | 117
HPLM + 10% dialyzed FBS, 46.1 µM | 108 | 104 | 115
RPMI 5 mM glucose + 10% FBS, 0.000781 µM | 112 | – | 53.2
RPMI 5 mM glucose + 10% FBS, 0.00234 µM | 112 | – | 124
RPMI 5 mM glucose + 10% FBS, 0.00702 µM | 109 | – | 103
RPMI 5 mM glucose + 10% FBS, 0.0211 µM | 122 | – | 107
RPMI 5 mM glucose + 10% FBS, 0.0632 µM | 115 | – | 95.6
RPMI 5 mM glucose + 10% FBS, 0.19 µM | 120 | – | 107
RPMI 5 mM glucose + 10% FBS, 0.569 µM | 118 | – | 124
RPMI 5 mM glucose + 10% FBS, 1.71 µM | 114 | – | 126
RPMI 5 mM glucose + 10% FBS, 5.12 µM | 117 | – | 109
RPMI 5 mM glucose + 10% FBS, 15.4 µM | 116 | – | 115
RPMI 5 mM glucose + 10% FBS, 46.1 µM | 110 | – | 102
RPMI 5 mM glucose + 10% dialyzed FBS, 0.000781 µM | 115 | 125 | 113
RPMI 5 mM glucose + 10% dialyzed FBS, 0.00234 µM | 120 | 119 | 114
RPMI 5 mM glucose + 10% dialyzed FBS, 0.00702 µM | 110 | 118 | 140
RPMI 5 mM glucose + 10% dialyzed FBS, 0.0211 µM | 114 | 125 | 131
RPMI 5 mM glucose + 10% dialyzed FBS, 0.0632 µM | 124 | 118 | 95.3
RPMI 5 mM glucose + 10% dialyzed FBS, 0.19 µM | 113 | 119 | 127
RPMI 5 mM glucose + 10% dialyzed FBS, 0.569 µM | 116 | 124 | 136
RPMI 5 mM glucose + 10% dialyzed FBS, 1.71 µM | 121 | 126 | 135
RPMI 5 mM glucose + 10% dialyzed FBS, 5.12 µM | 111 | 122 | 114
RPMI 5 mM glucose + 10% dialyzed FBS, 15.4 µM | 122 | 109 | 126
RPMI 5 mM glucose + 10% dialyzed FBS, 46.1 µM | 120 | 111 | 107

Cc1nnc(N[S+](=O)([O-])c2ccc(N)cc2)s1
AUC of viability dose-response curve
Details | HPLM + 10% dialyzed FBS | RPMI 5 mM glucose + 10% FBS | RPMI 5 mM glucose + 10% dialyzed FBS
P12-Ichikawa [2] | 390 | 394 | 412
SEM cells [3] | 450 | 443 | 449

CC1=CC=C(C=C1)N(C\C2=N\CCN2)C3=CC=CC(=C3)O
AUC of viability dose-response curve
Details | NOMO1 [1] | P12-Ichikawa [2] | SEM cells [3]
HPLM + 10% dialyzed FBS | 352 | 473 | 454
RPMI 5 mM glucose + 10% FBS | 403 | 452 | 464
RPMI 5 mM glucose + 10% dialyzed FBS | 407 | 459 | 468

SEM cells [6], HPLM + 10% dialyzed FBS
Details | cell viability [%]
0.000781 µM | 118
0.00234 µM | 114
0.00702 µM | 122
0.0211 µM | 120
0.0632 µM | 117
0.19 µM | 126
0.569 µM | 132
1.71 µM | 131
5.12 µM | 131
15.4 µM | 131
46.1 µM | 68.4
